Laboratory results reported in US20060188959A1, “Crystal structure of worm NitFhit reveals that a Nit tetramer binds tow Fhit dimers” (Thomas Jefferson University, priority 2000, published 2006).
Like-named read-outs stand apart in the source and are kept apart here.

Key:
Type in all cases: biochemical, C. elegans
[1] = biological target: T1, Fhit active site of NitFhit (Caenorhabditis elegans, UniProt O76463); test: Nonlabeled compounds as competitive inhibitors of ApppBODIPY hydrolysis
T1 construct: generated an NdeI site at the initiator codon and an XhoI site 3′ of the stop codon; made in house; host or cells: E. coli strain ER2566
T1 sequence (O76463 1-440): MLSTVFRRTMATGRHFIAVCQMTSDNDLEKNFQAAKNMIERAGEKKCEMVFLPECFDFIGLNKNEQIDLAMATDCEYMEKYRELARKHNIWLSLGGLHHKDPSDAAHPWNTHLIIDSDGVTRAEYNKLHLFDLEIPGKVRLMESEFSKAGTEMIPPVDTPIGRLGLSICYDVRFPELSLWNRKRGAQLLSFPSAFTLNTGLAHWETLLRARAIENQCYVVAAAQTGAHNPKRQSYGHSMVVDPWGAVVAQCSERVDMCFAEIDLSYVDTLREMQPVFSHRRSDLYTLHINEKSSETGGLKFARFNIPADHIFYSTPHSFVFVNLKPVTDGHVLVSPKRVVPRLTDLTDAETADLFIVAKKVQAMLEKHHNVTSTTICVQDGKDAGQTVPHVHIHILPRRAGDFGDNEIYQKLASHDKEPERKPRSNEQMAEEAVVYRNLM
Procedure: Assays of nonlabeled compounds as competitive inhibitors of ApppBODIPY hydrolysis were also performed as developed for human Fhit.

[2] = biological target: T1, Fhit active site of NitFhit; test: ApppBODIPY substrate decay assay of the Fhit active site of NitFhit; details: ApppBODIPY as substrate; % of the activity of human Fhit
[3] = biological target: T1, Fhit active site of NitFhit; test: GpppBODIPY initial rate assay of the Fhit active site of NitFhit
[4] = titration of nonlabeled compound into 1.5 μM ApppBODIPY assays, five competitor concentrations, read-out: Kl
[5] = initial rates, GpppBODIPY titrated 40 μM to 2.5 μM, 0.5 pmol enzyme

| Compound | Ki [1] [µM] | Ki [1, 4] [µM] | further results |
| --- | --- | --- | --- |
| Nc1ncnc2c1ncn2[C@@H]1O[C@H](COP(O)(=S)OP(=O)(O)OP(=O)(O)O)[C@@H](O)[C@H]1O (some centres unmarked) [ATP-αS] | 287 ± 73 | – | – |
| Nc1ncnc2c1ncn2[C@@H]1O[C@H](COP(=O)(O)OP(=O)(O)OP(=O)(O)OP(=O)(O)OC[C@H]2O[C@@H](n3cnc4c(N)ncnc43)[C@H](O)[C@@H]2O)[C@@H](O)[C@H]1O [AppppA] | – | 2.7 ± 0.3 | – |
| Nc1ncnc2c1ncn2[C@@H]1O[C@H](COP(=O)(O)OP(=O)(O)OP(=O)(O)OC[C@H]2O[C@@H](n3cnc4c(N)ncnc43)[C@H](O)[C@@H]2O)[C@@H](O)[C@H]1O [ApppA] | – | 4.2 ± 0.4 | – |
| Nc1nc(O)c2ncn([C@@H]3O[C@H](COP(=O)(S)OP(=O)(O)OP(=O)(O)O)[C@@H](O)[C@H]3O)c2n1 (some centres unmarked) [GTP-αS] | 481 ± 27 | – | – |
| Appp-S-(4-4-fluoro-5,7-dimethyl-4-bora-3a,4a-diaza-s-indacine-3-yl) [ApppBODIPY] | – | – | activity of worm NitFhit relative to human Fhit on the substrate (kcat/Km) [2]: 22% |
| O=P(O)(O)OP(=O)(O)O [pyrophosphate] | 78 ± 12 | – | – |
| Nc1ncnc2c1ncn2[C@@H]1O[C@H](COP(=O)(O)O)[C@@H](O)[C@H]1O [AMP] | 153 ± 13 | – | – |
| Nc1ncnc2c1ncn2[C@@H]1O[C@H](COP(=O)(O)OP(=O)(O)OP(=O)(O)OP(=O)(O)OP(=O)(O)OC[C@H]2O[C@@H](n3cnc4c(N)ncnc43)[C@H](O)[C@@H]2O)[C@@H](O)[C@H]1O [ApppppA] | – | 4.5 ± 0.7 | – |
| Gppp-S-(4-4-fluoro-5,7-dimethyl-4-bora-3a,4a-diaza-s-indacine-3-yl) [GpppBODIPY] | – | – | activity of worm NitFhit relative to human Fhit on the substrate (kcat/Km) ([3]; GpppBODIPY as substrate, % of the activity of human Fhit): 109%; Km [3, 5]: 3.7 µM; kcat [3, 5]: 2.4 s⁻¹ |
